Laboratory results reported in the NIST ThermoML archive (doi:10.1021/je100208e).

Columns and labels:
[1] = Molar enthalpy of transition or fusion; details: Crystal; DSC
[2] = for vapor or sublimation pressure: Knudsen effusion; for Normal melting temperature: DTA

c1ccc2cc3ccccc3cc2c1 [anthracene]
Details | Molar enthalpy of transition or fusion [kcal/mol]
[1] | 6.65

[2], Crystal
Details | vapor or sublimation pressure [kPa]
300 K | 1.192e-06
305 K | 2.257e-06
310 K | 4.186e-06
315 K | 7.613e-06
320 K | 1.359e-05
325 K | 2.383e-05
330 K | 4.109e-05
335 K | 6.969e-05
340 K | 0.0001164
345 K | 0.0001915
350 K | 0.0003107
355 K | 0.0004972
360 K | 0.0007852
365 K | 0.001225
370 K | 0.001888
373 K | 0.002433

Details | Normal melting temperature [°C]
[2], Crystal | 217

c1cc2ccc3cccc4ccc(c1)c2c34 [pyrene]
Details | Molar enthalpy of transition or fusion [kcal/mol]
[1] | 3.87

[2], Crystal 1
Details | vapor or sublimation pressure [kPa]
315 K | 4.79e-06
320 K | 8.55e-06
325 K | 1.499e-05
330 K | 2.584e-05
335 K | 4.382e-05
340 K | 7.317e-05
345 K | 0.0001204
350 K | 0.0001952
355 K | 0.0003124
360 K | 0.0004933
365 K | 0.0007693
370 K | 0.001185
375 K | 0.001806
378 K | 0.002312

Details | Normal melting temperature [°C]
[2], Crystal | 151
